The text below walks through data of US7071168B2, “Anti-cancer compounds and methods related thereto” (The Regents of the University of Colorado, priority 1998, dated 2006).

The subject of experiment [1] is bradykinin response of isolated guinea pig ileum. Put plainly: Anti-bradykinin activity on isolated guinea pig ileum. The settings on record: isolated guinea pig ileum; pD2 of bradykinin is 7.4; higher numbers indicate higher potency. The protocol: (§1) In general, Anti-bradykinin activity was determined by the classical guinea pig ileum assay and on Chinese hamster ovary (CHO) cells expressing cloned human bradykinin B2 receptors. Anti-tumor activity was determined on cultured human cancer cell lines using the standard tetrazolium (MTT) assay.
Male Hartley guinea pigs that had been deprived of food overnight were sacrificed, and sections of terminal ileum, 25 mm in length, were dissected, attached to tissue holders and immersed in 10 ml tissue baths containing Krebs' solution bubbled with 95% O2/5% CO2. Tissues were placed under 1 g tension and incubated for 1 h equilibration. Concentration-effect curves were constructed to bradykinin in the absence and presence of new compounds.

For another experiment, the system named is SCLC strain SHP-77. The experiment in a line: Colorimetric tetrazolium (MTT) assay for cell survival, SCLC strain SHP-77. The experiment is classed as cell-based, human. As to the method:
as §1
Cell growth and survival were measured by a rapid colorimetric assay based on the tetrazolium salt MTT (3-(4,5-dimethylthiazol-2-yl)-2,5-diphenyl tetrazolium bromide) (Mosmann, J Immunol. Methods 65: 55–63, 1983, with minor modifications). Briefly, 1,000 normal lung fibroblasts or normal epithelial BEAS-2B cells, 1,000 or 5,000 viable non-SCLC cells or 10,000 viable SCLC cells were plated in 100 μL of growth medium in 96-well flat-bottomed microtiter plates. Cells were incubated overnight to allow recovery. Compounds to be tested were added to the cells in triplicate in a range of concentrations and the cells were incubated at 37° C., 5% CO2, with 100% humidity. Control cells were treated in the same way without antagonists. […] Plates were incubated for 4 days, allowing sufficient time for cell replication and compound-induced cell death to occur. On day 5, 25 μL of a 2 mg/mL solution of MTT (Sigma) dissolved in RMPI-1640was added to each well. The plate was incubated for 4 h at 37° C. The supernate was removed and the blue formazan complex was dissolved by adding 100 μL of 0.02 N HCl in 75% isopropanol to all wells. Absorbance was immediately determined using a scanning multiwell plate reader. B9870 caused 50% cell death at a concentration of 0.15 μM under these conditions.

With `O=C(NC1CN2CCC1CC2)C(NC(=NC1CCCCC1)NC1CCCCC1)C1Cc2ccccc2C1` (stereo not drawn) [M12], in experiment [1], the “GPI: pA2 for bradykinin antagonist activity on isolated guinea pig ileum” value (“GPI: pA2” for short) came to 5.0. Further, the “MTT: ED50 for killing of SCLC strain SHP-77 in vitro” value (“MTT: ED50 for killing” below) in the experiment on SCLC strain SHP-77 (SCLC strain SHP-77 in vitro) stood at 20 µM.
For `O=C(NC1CN2CCC1CC2)C(Cc1ccc2ccccc2c1)NC(=NC1CCCCC1)NC1CCCCC1` (stereo not drawn) [M18], in that order: 6.6 and 30 µM.
Take `CC1(C)CC(NC(=O)[C@@H](N)Cc2ccc3ccccc3c2)CC(C)(C)N1` [M218]: the “GPI: pA2” value in experiment [1] amounted to 4.8. In the experiment with SCLC strain SHP-77 (SCLC strain SHP-77 in vitro), the “MTT: ED50 for killing” value is reported as “Inact”.
On to `CC1(C)CC(NC(=O)[C@@H](NC(=NC2CCCCC2)NC2CCCCC2)C2Cc3ccccc3C2)CC(C)(C)N1` [M236], for which, in experiment [1], the “GPI: pA2” value is 4.7. Also, the “MTT: ED50 for killing” value with SCLC strain SHP-77 (SCLC strain SHP-77 in vitro) is above 50 µM.
For `CC1(C)CC(NC(=O)[C@H](Cc2c(F)c(F)c(F)c(F)c2F)NC(=NC2CCCCC2)NC2CCCCC2)CC(C)(C)N1` [M240], in that order: 5.1 and 32 µM.
For `COC(=O)C1(NC(=O)[C@H](Cc2ccc3ccccc3c2)NC(=NC2CCCCC2)NC2CCCCC2)CC(C)(C)NC(C)(C)C1` [M244A] the same measures were 5.0 and 12 µM.
On to `CC1(C)CC(NC(=O)[C@H](Cc2ccc3ccccc3c2)NC(=NC2CCCCC2)NC2CCCCC2)(C(=O)O)CC(C)(C)N1` [M244B], for which the “GPI: pA2” value in experiment [1] is listed as 4.9. Moreover, in the experiment with SCLC strain SHP-77 (SCLC strain SHP-77 in vitro), the “MTT: ED50 for killing” value is “Inact”.
For `CC1(C)CC(NC(=O)[C@@H](Cc2ccc3ccccc3c2)NC(=NC2CCCCC2)NC2CCCCC2)CC(C)(C)N1` [M246], in that order: 5.7 and above 50 µM.
With `CC1(C)CC(NC(=O)[C@H](Cc2ccc3ccccc3c2)NC(=O)C=Cc2c(F)c(F)c(F)c(F)c2F)CC(C)(C)N1` [M248], the “GPI: pA2” value in experiment [1] worked out at 6.2. The “MTT: ED50 for killing” value in the experiment on SCLC strain SHP-77 (SCLC strain SHP-77 in vitro) was found to be 3.2 µM.
Take `CC1(C)CC(NC(=O)[C@H](Cc2ccc3ccccc3c2)NC(=O)C2=CN3CCC2CC3)CC(C)(C)N1` [M252]: the “GPI: pA2” value in experiment [1] was 4.8. The “MTT: ED50 for killing” value with SCLC strain SHP-77 (SCLC strain SHP-77 in vitro) is listed as “Inact”.
Turning to `CC1(C)CC(NC(=O)[C@H](Cc2ccc3ccccc3c2)NC(=N)CCCCCCCCCCCCC(=N)N[C@@H](Cc2ccc3ccccc3c2)C(=O)NC2CC(C)(C)NC(C)(C)C2)CC(C)(C)N1` [M254-1], in experiment [1], the “GPI: pA2” value turned out to be 5.1. Moreover, the “MTT: ED50 for killing” value in the experiment with SCLC strain SHP-77 (SCLC strain SHP-77 in vitro) was determined as 5 µM.
For `CC1(C)CC(NC(=O)[C@H](Cc2ccc3ccccc3c2)NC(=N)CCCCCCCCCCCCC(=N)N[C@@H](Cc2ccc3ccccc3c2)C(=O)NC2CC(C)(C)NC(C)(C)C2)CC(C)(C)N1` [M254-2] the same measures were 5.8 and 5 µM.
For `CC1(C)CC(NC(=O)[C@H](Cc2ccc3ccccc3c2)NC(=N)CCCCCCCCCCCCC(=N)N[C@@H](Cc2ccc3ccccc3c2)C(=O)NC2CC(C)(C)NC(C)(C)C2)CC(C)(C)N1` [M254], in that order: 5.1 and 5 µM.
For `CC1(C)CC(NC(=O)[C@@H](Cc2ccc3ccccc3c2)NC(=NC2CCCCC2)NC2CCCCC2)CC(C)(C)N1` [M262], in that order: 5.3 and 6 µM.
For `CC1(C)CC(NC(=O)[C@H](Cc2c[nH]c3ccccc23)NC(=NC2CCCCC2)NC2CCCCC2)CC(C)(C)N1` [M264], in experiment [1], the “GPI: pA2” value amounted to 4.7. In addition, the “MTT: ED50 for killing” value with SCLC strain SHP-77 (SCLC strain SHP-77 in vitro) turned out to be 16 µM.
For `CC1(C)CC(NC(=O)Cc2ccc(NC(=NC3CCCCC3)NC3CCCCC3)cc2)CC(C)(C)N1` [M266], in that order: 4.8 and 42 µM.
For `CC1(C)C=C(C(=O)NCCNC(=O)C(Cc2ccc3ccccc3c2)NC(=O)C=Cc2c(F)c(F)c(F)c(F)c2F)C(C)(C)N1` (stereo not drawn) [M268] the same measures were 5.2 and 10 µM.
As for “Aaa-DArg-Arg-Eac-Ser-D5F5-Oic-Arg [M954]”, the “MTT: ED50 for killing” value with SCLC strain SHP-77 (Table 1, SHP-77, MTT, 4 days) is 10 µM.
With Aaa-Pac-hPhe-Arg [M752-6], the “MTT: ED50 for killing” value with SCLC strain SHP-77 (Table 1, SHP-77, MTT, 4 days) was “Inact”.
On to Aaa-Ser-Pac-hPhe-Arg [M752-5], for which the “MTT: ED50 for killing” value in the experiment with SCLC strain SHP-77 (Table 1, SHP-77, MTT, 4 days) is given as “Inact”.
The same measure, in the same setting: the entry for Ac-OC2Y-Arg [M784] is “Inact”; for “Aca-DArg-Arg-Aud-Ser-D5F5-Oic-Arg [M960]” it is 21 µM; for Cin-hPhe-Arg [M706] it is “Inact”.
For the compound DArg-Arg-Aud-DIgl-PFF-Arg [M844], the “MTT: ED50 for killing” value in the experiment on SCLC strain SHP-77 (Table 1, SHP-77, MTT, 4 days) is 12 µM.
“DDD-(DArg-Arg-Aud-DIgl-hPhe-Arg)2 [M786]”: the “MTT: ED50 for killing” value with SCLC strain SHP-77 (Table 1, SHP-77, MTT, 4 days) stood at 3.2 µM.
Same read-out and setting: the value for “DDD-(DArg-Arg-Aud-Pac-2Nal-DArg-NH2)2 [M710]” was 1.7 µM.
On to “DDD-(DArg-Arg-Eac-Ser-DF5F-PFF-Arg)2 [M944]”, for which the “MTT: ED50 for killing” value in the experiment with SCLC strain SHP-77 (Table 1, SHP-77, MTT, 4 days) amounted to 6.7 µM.
As for “DDD-(DArg-Arg-Eac-Ser-DIgl-PFF-Arg)2 [M932]”, in the experiment with SCLC strain SHP-77 (Table 1, SHP-77, MTT, 4 days), the “MTT: ED50 for killing” value stood at 6.0 µM.
For the compound DDD-(DArg-PFF-Arg-NH2)2 [M818], in the experiment on SCLC strain SHP-77 (Table 1, SHP-77, MTT, 4 days), the “MTT: ED50 for killing” value was 60 µM.
The same measure, in the same setting: the figure for DDD-(DArg-hPhe-Arg-NH2)2 [M560] is 50 µM.
For the compound DDD-(Eac-Arg-Digl-Oic-Arg)2 [B10198-2], the “MTT: ED50 for killing” value in the experiment on SCLC strain SHP-77 (Table 1, SHP-77, MTT, 4 days) worked out at 15 µM.
Still for that read-out and setting: the value for Dca-hPhe-Arg [M542] was 80 µM.
Same read-out and setting: the value for Dcg-Digl-Oic-Arg [B9490] was above 60 µM.
On to Dcg-hPhe-Arg [M558], for which, in the experiment on SCLC strain SHP-77 (Table 1, SHP-77, MTT, 4 days), the “MTT: ED50 for killing” value is 100 µM.
Same read-out and setting: the value for “Dmac-DArg-Arg-Aud-Ser-D5F5-Oic-Arg [M968]” was 15 µM; that for “F5bz-DArg-Arg-Aud-Ser-D5F5-Oic-Arg [M958]” was 18 µM; that for F5bz-F5F-Arg [M132] was 60 µM.
As for F5c-DArg-Arg-Aud-Pac-2Nal-Arg [M698], the “MTT: ED50 for killing” value in the experiment with SCLC strain SHP-77 (Table 1, SHP-77, MTT, 4 days) came to 7.1 µM.
With F5c-DArg-hPhe-Arg [M612], the “MTT: ED50 for killing” value in the experiment on SCLC strain SHP-77 (Table 1, SHP-77, MTT, 4 days) is listed as “Inact”.
Same read-out and setting: the entry for F5c-PCF-Arg [M714] is “Inact”.
On the same count and under the same terms, the figure for F5c-PFF-Arg-NH2 [M812] is 15 µM; for F5c-p-APa-Arg [M216] it is above 180 µM.
On the same count and under the same terms, the entry for Pac-hPhe-Arg [M752-2] is “Inact”; for Ppa-PFF-Arg [M814] it is “Inact”.
On to Pya-hPhe-Arg [M540], for which the “MTT: ED50 for killing” value in the experiment with SCLC strain SHP-77 (Table 1, SHP-77, MTT, 4 days) was above 100 µM.
Turning to c[Arg-DNMF-DTrp-Phe-DTrp-Leu] [B10306], in the experiment with SCLC strain SHP-77 (Table 3, cyclic peptides), the “MTT: ED50 for killing” value is given as “Inact”.
Same read-out and setting: the figure for c[DArg-Arg Add-DIgl-PFF-Arg] [M878] is 7 µM; for c[DArg-Arg-Eac-DF5F-Oic-Arg] [M906] it is 45 µM.
On the same count and under the same terms, the figure for c[DArg-Arg-Eac-DIgl-PFF-Arg] [M896] is 65 µM; for “c[Suc-DArg-Arg-Eac-Ser-DIgl-PaF]-Arg [M924]” it is 37 µM.
Take α-DDD-(ApC-F5F-Arg)2 [M930]: the “MTT: ED50 for killing” value in the experiment on SCLC strain SHP-77 (Table 1, SHP-77, MTT, 4 days) is on record as “Inact”.
In the case of “α-DDD-(K-DArg-Arg-Eac-Ser-DF5F-Oic-Arg)2 [M950]”, the “MTT: ED50 for killing” value in the experiment on SCLC strain SHP-77 (Table 1, SHP-77, MTT, 4 days) is 6.7 µM.
As for “α-DDD-(c[Lys-DArg-Arg-Pro-Hyp-Gly-Thi-Ser-DF5F-Oic-Arg])2 [B10312]”, the “MTT: ED50 for killing” value with SCLC strain SHP-77 (Table 3, cyclic peptides) turned out to be 3.8 µM.
Consider “α-Lys-DArg-Arg-Pro-Hyp-Gly-Igl-Ser-DIgl-Oic-Arg Sub-Arg-DNMF-DTrp-Phe-DTrp-Leu [B9950]”, for which, in the experiment on SCLC strain SHP-77 (Table 1, SHP-77, MTT, 4 days), the “MTT: ED50 for killing” value was determined as 8 µM.
As for ζ-SUB-(ApC-F5F-Arg)2 [M926], the “MTT: ED50 for killing” value with SCLC strain SHP-77 (Table 1, SHP-77, MTT, 4 days) is on record as “Inact”.
